BigSolDB 2.1

O=C(O)c1cccc([N+](=O)[O-])c1C(=O)O
Details | solubility (mole fraction)
in 1,4-dioxane, 288.17 K | 0.0758
in 1,4-dioxane, 293.28 K | 0.0868
in 1,4-dioxane, 298.31 K | 0.097
in 1,4-dioxane, 303.29 K | 0.107
in 1,4-dioxane, 308.26 K | 0.116
in 1,4-dioxane, 313.2 K | 0.124
in 1,4-dioxane, 318.21 K | 0.132
in 1,4-dioxane, 323.29 K | 0.139
in 1,4-dioxane, 328.19 K | 0.146
in 1,4-dioxane, 333.18 K | 0.152
in 1,4-dioxane, 338.22 K | 0.158
in 1,4-dioxane, 343.16 K | 0.163
in 1,4-dioxane, 348.23 K | 0.167
in 1,4-dioxane, 353.32 K | 0.171
in THF, 278.28 K | 0.203
in THF, 283.17 K | 0.204
in THF, 288.16 K | 0.204
in THF, 293.21 K | 0.205
in THF, 298.29 K | 0.206
in THF, 303.28 K | 0.207
in THF, 308.19 K | 0.208
in THF, 313.23 K | 0.209
in THF, 318.24 K | 0.21
in THF, 323.16 K | 0.211
in THF, 328.19 K | 0.213
in THF, 333.17 K | 0.214
in acetone, 278.16 K | 0.0525
in acetone, 283.18 K | 0.0541
in acetone, 288.27 K | 0.056
in acetone, 293.33 K | 0.0582
in acetone, 298.24 K | 0.0604
in acetone, 303.19 K | 0.0629
in acetone, 308.32 K | 0.0657
in acetone, 313.16 K | 0.0685
in acetone, 318.2 K | 0.0717
in ethyl acetate, 283.2 K | 0.00793
in ethyl acetate, 288.26 K | 0.00847
in ethyl acetate, 293.28 K | 0.00902
in ethyl acetate, 298.19 K | 0.00958
in ethyl acetate, 303.21 K | 0.0102
in ethyl acetate, 308.3 K | 0.0109
in ethyl acetate, 313.16 K | 0.0116
in ethyl acetate, 318.22 K | 0.0124
in ethyl acetate, 323.16 K | 0.0134
in ethyl acetate, 328.23 K | 0.0144
in ethyl acetate, 333.17 K | 0.0156
in ethyl formate, 283.17 K | 0.00268
in ethyl formate, 288.18 K | 0.00287
in ethyl formate, 293.21 K | 0.00309
in ethyl formate, 298.26 K | 0.00335
in ethyl formate, 303.16 K | 0.00363
in ethyl formate, 308.19 K | 0.00396
in ethyl formate, 313.27 K | 0.00433
in ethyl formate, 318.25 K | 0.00473
in ethyl formate, 323.29 K | 0.00517
in methyl acetate, 278.17 K | 0.0334
in methyl acetate, 283.26 K | 0.0343
in methyl acetate, 288.27 K | 0.0353
in methyl acetate, 293.21 K | 0.0365
in methyl acetate, 298.24 K | 0.0378
in methyl acetate, 303.16 K | 0.0392
in methyl acetate, 308.22 K | 0.0407
in methyl acetate, 313.28 K | 0.0422
in methyl acetate, 318.17 K | 0.0437
in methyl acetate, 323.19 K | 0.0452
in n-butyl acetate, 283.18 K | 0.00243
in n-butyl acetate, 288.16 K | 0.00297
in n-butyl acetate, 293.21 K | 0.00353
in n-butyl acetate, 298.19 K | 0.0041
in n-butyl acetate, 303.22 K | 0.0047
in n-butyl acetate, 308.26 K | 0.00531
in n-butyl acetate, 313.27 K | 0.00594
in n-butyl acetate, 318.18 K | 0.00657
in n-butyl acetate, 323.22 K | 0.00724
in n-butyl acetate, 328.24 K | 0.00792
in n-butyl acetate, 333.19 K | 0.0086
in n-butyl acetate, 338.28 K | 0.00933
in n-butyl acetate, 343.25 K | 0.0101
in n-butyl acetate, 348.24 K | 0.0108
in n-butyl acetate, 353.26 K | 0.0116
in water, 283.18 K | 0.00115
in water, 288.26 K | 0.00129
in water, 293.27 K | 0.00152
in water, 298.21 K | 0.00179
in water, 303.19 K | 0.00211
in water, 308.22 K | 0.0025
in water, 313.19 K | 0.003
in water, 318.29 K | 0.00367
in water, 323.18 K | 0.00451
in water, 328.31 K | 0.00569
in water, 333.22 K | 0.00724
in water, 338.18 K | 0.00943
in water, 343.17 K | 0.0126
in water, 348.16 K | 0.0172
in water, 353.28 K | 0.0241
